Results as given in patent US7368578B2, “Five-membered heterocyclic compounds” (Takeda Pharmaceutical Company Limited, priority 2002, dated 2008).

melting point [°C] | SMILES
125 to 126 | CCc1nc(/C=C\c2cn(-c3ccccc3)nc2OCc2ccc(OCc3nc(-c4cccc(C(=O)OC)c4)oc3C)c(OC)c2)cs1 [Example 225 (Z form), methyl 3-[4-({4-[({4-[(Z)-2-(2-ethyl-1,3-thiazol-4-yl)ethenyl]-1-phenyl-1H-pyrazol-3-yl}oxy)methyl]-2-methoxyphenoxy}methyl)-5-methyl-1,3-oxazol-2-yl]benzoate]
161 to 162 | COc1cc(COc2nn(-c3ccccc3)cc2C=O)ccc1OCc1nc(-c2cccnc2)oc1C [Example 227, 3-({3-methoxy-4-[(5-methyl-2-pyridin-3-yl-1,3-oxazol-4-yl)methoxy]benzyl}oxy)-1-phenyl-1H-pyrazole-4-carbaldehyde]
76 to 78 | CCc1nc(/C=C/c2cn(-c3ccccc3)nc2OCc2ccc(OCc3nc(N4CCOCC4)sc3C)c(OC)c2)cs1 [Example 232 (E form), 4-[4-({4-[({4-[(E)-2-(2-ethyl-1,3-thiazol-4-yl)ethenyl]-1-phenyl-1H-pyrazol-3-yl}oxy)methyl]-2-methoxyphenoxy}methyl)-5-methyl-1,3-thiazol-2-yl]morpholine]
112 to 114 | CCc1nc(/C=C\c2cn(-c3ccccc3)nc2OCc2ccc(OCc3nc(N4CCOCC4)sc3C)c(OC)c2)cs1 [Example 232 (Z form), 4-[4-({4-[({4-[(Z)-2-(2-ethyl-1,3-thiazol-4-yl)ethenyl]-1-phenyl-1H-pyrazol-3-yl}oxy)methyl]-2-methoxyphenoxy}methyl)-5-methyl-1,3-thiazol-2-yl]morpholine]
185 to 186 | Cc1oc(-c2ccccc2)nc1COc1ccc(C(=O)Nc2nn(-c3ccccc3)cc2C=O)cc1 [Example 233, N-(4-formyl-1-phenyl-1H-pyrazol-3-yl)-4-[(5-methyl-2-phenyl-1,3-oxazol-4-yl)methoxy]benzamide]
193 to 194 | COc1cc(COc2nn(-c3ccccc3)cc2C=O)ccc1OCc1nc(-c2cccc(O)c2)oc1C [Example 234, 3-[(4-{[2-(3-hydroxyphenyl)-5-methyl-1,3-oxazol-4-yl]methoxy}-3-methoxybenzyl)oxy]-1-phenyl-1H-pyrazole-4-carbaldehyde]
107 to 109 | COC(=O)COc1cccc(-c2nc(COc3ccc(COc4nn(-c5ccccc5)cc4C=O)cc3OC)c(C)o2)c1 [Example 235, methyl (3-{4-[(4-{[(4-formyl-1-phenyl-1H-pyrazol-3-yl)oxy]methyl}-2-methoxyphenoxy)methyl]-5-methyl-1,3-oxazol-2-yl}phenoxy)acetate]
161 to 162 | COC(=O)c1cccc(-c2nc(COc3ccc(COc4nn(-c5ccccc5)cc4C=O)cc3)c(C)o2)c1 [Example 237, methyl 3-{4-[(4-{[(4-formyl-1-phenyl-1H-pyrazol-3-yl)oxy]methyl}phenoxy)methyl]-5-methyl-1,3-oxazol-2-yl}benzoate]

The next lines start with the compound.

SMILES | melting point [°C]
COc1cc(COc2nn(-c3ccccc3)cc2C=O)ccc1OCc1csc(N2CCOCC2)n1 [Example 197, 3-({3-methoxy-4-[(2-morpholin-4-yl-1,3-thiazol-4-yl)methoxy]benzyl}oxy)-1-phenyl-1H-pyrazole-4-carbaldehyde] | 128 to 129
COc1cc(COc2nn(-c3ccccc3)cc2C=O)ccc1OCc1nc(N2CCCCC2)sc1C [Example 198, 3-({3-methoxy-4-[(5-methyl-2-piperidin-1-yl-1,3-thiazol-4-yl)methoxy]benzyl}oxy)-1-phenyl-1H-pyrazole-4-carbaldehyde] | 180 to 181
CCOC(=O)c1cn(Cc2cccnc2)nc1OCc1ccc(OCc2nc(-c3ccco3)oc2C)c(OC)c1 [Example 199, ethyl 3-[(4-{[2-(2-furyl)-5-methyl-1,3-oxazol-4-yl]methoxy}-3-methoxybenzyl)oxy]-1-(pyridin-3-ylmethyl)-1H-pyrazole-4-carboxylate] | 131 to 132
COc1cc(COc2nn(Cc3cccnc3)cc2CO)ccc1OCc1nc(-c2ccco2)oc1C [Example 200, [3-[(4-{[2-(2-furyl)-5-methyl-1,3-oxazol-4-yl]methoxy}-3-methoxybenzyl)oxy]-1-(pyridin-3-ylmethyl)-1H-pyrazol-4-yl]methanol] | 90 to 91
COC(=O)c1ccccc1-c1nc(COc2ccc(COc3nn(-c4ccccc4)cc3C=O)cc2OC)c(C)o1 [Example 207, methyl 2-{4-[(4-{[(4-formyl-1-phenyl-1H-pyrazol-3-yl)oxy]methyl}-2-methoxyphenoxy)methyl]-5-methyl-1,3-oxazol-2-yl}benzoate] | 134 to 135
COC(=O)c1cccc(-c2nc(COc3ccc(CON4CC(C=O)=CN4c4ccccc4)cc3OC)c(C)o2)c1 [Example 208, methyl 3-{4-[(4-{[(4-formyl-1-phenyl-1H-pyrazol-2-yl)oxy]methyl}-2-methoxyphenoxy)methyl]-5-methyl-1,3-oxazol-2-yl}benzoate] | 164 to 165
COC(=O)c1ccc(-c2nc(COc3ccc(COc4nn(-c5ccccc5)cc4C=O)cc3OC)c(C)o2)cc1 [Example 209, methyl 4-{4-[(4-{[(4-formyl-1-phenyl-1H-pyrazol-3-yl)oxy]methyl}-2-methoxyphenoxy)methyl]-5-methyl-1,3-oxazol-2-yl}benzoate] | 190 to 191
COc1cc(COc2nn(-c3ccccc3)cc2C=O)ccc1OCc1nc(-c2ccccc2)sc1C [Example 213, 3-({3-methoxy-4-[(5-methyl-2-phenyl-1,3-thiazol-4-yl)methoxy]benzyl}oxy)-1-phenyl-1H-pyrazole-4-carbaldehyde] | 164 to 165
COc1cc(COc2nn(-c3ccccc3)cc2C=O)ccc1OCc1coc(-c2ccco2)n1 [Example 218, 3-[(4-{[2-(2-furyl)-1,3-oxazol-4-yl]methoxy}-3-methoxybenzyl)oxy]-1-phenyl-1H-pyrazole-4-carbaldehyde] | 162 to 163
COc1cc(COc2nn(-c3ccccc3)cc2C=O)ccc1OCc1sc(-c2ccccc2)nc1C [Example 219, 3-({3-methoxy-4-[(4-methyl-2-phenyl-1,3-thiazol-5-yl)methoxy]benzyl}oxy)-1-phenyl-1H-pyrazole-4-carbaldehyde] | 171 to 172
COc1cc(COc2nn(-c3ccccc3)cc2C=O)ccc1OCc1cn(-c2ccccn2)nc1C [Example 220, 3-({3-methoxy-4-[(3-methyl-1-pyridin-2-yl-1H-pyrazol-4-yl)methoxy]benzyl}oxy)-1-phenyl-1H-pyrazole-4-carbaldehyde] | 179 to 180
COc1cc(COc2nn(-c3ccccc3)cc2C=O)ccc1OCc1nc(-c2ccccc2)cn1C [Example 221, 3-({3-methoxy-4-[(1-methyl-4-phenyl-1H-imidazol-2-yl)methoxy]benzyl}oxy)-1-phenyl-1H-pyrazole-4-carbaldehyde] | 126 to 127
CCc1nc(/C=C/c2cn(-c3ccccc3)nc2OCc2ccc(OCc3nc(-c4cccc(C(=O)OC)c4)oc3C)c(OC)c2)cs1 [Example 225 (E form), methyl 3-[4-({4-[({4-[(E)-2-(2-ethyl-1,3-thiazol-4-yl)ethenyl]-1-phenyl-1H-pyrazol-3-yl}oxy)methyl]-2-methoxyphenoxy}methyl)-5-methyl-1,3-oxazol-2-yl]benzoate] | 132 to 133
